Series [1] is described as follows: Saturation level of urea, betaine and urea:betaine mixtures in water. The class given is physicochemical. The source says:
The concentrations of pure urea solution in water or PBS ranged from 0.025 to 10.1 M, the latter value corresponding to the saturation level of urea. Finally, the concentrations of pure betaine in water or PBS ranged from 0.025 to 5.4 M, this latter corresponding to the saturation level of betaine. In this Example, anhydrous urea:betaine (U:B) mixtures at different molar ratios were first prepared, then solubilized in distilled water at different concentrations ranging from 1.5 g/L to the saturation level which was 607, 813, 985, 957, 795, 741, and 633 g/L for the U:B ratios 1:0, 3:1, 2:1, 1:1, 1:2, 1:3, and 0:1, respectively.

Series [2] can be described thus: Solubilization of disperse red 13 by urea:betaine aqueous solutions (absorbance at 525 nm). Type of series: physicochemical. The following applies: distilled water, room temperature. Here is the method: The desired amounts of betaine and/or urea powders were dissolved in distilled water or phosphate buffer solution (PBS, 67 mM) at pH 7.0 to form a 100 mL solution.
The concentration of urea in the urea:betaine mixtures in water or PBS ranged from 0.025 to 8.3 M.
The solutions of urea and/or betaine in PBS were adjusted to provide a pH of 7.0 using concentrated HCl. The volume of added HCl was taken into account when calculating the final molar concentration of betaine and/or urea.
10 mL of the osmolyte solution was added to a vial containing 5 mg red disperse 13 in excess ([…], Sigma), then magnetically stirred (500 rpm) for 16 hours and filtrated (0.45 μm). The concentration of red disperse 13 in the filtrate is measured at 525 nm (Shimadzu UV-1800, Japan). […]
These liquid mixtures were mixed with an excess of disperse red 13 used as a hydrophobic probe to screen the solubilization properties of the solvents. It can be observed from FIG. 1 that the disperse red 13 absorbance increases exponentially 525 nm approx.) with increasing the deep eutectic concentration in water. […]

The format of series [3] is physicochemical. The source says: To further improve the washing procedure that leads to a high carnosic acid content in the final extract and, concomitantly, a strong antioxidant activity, here we studied the effect of the addition of sodium chloride on the CA hydrosolubility.

Each structure is given as a SMILES string.

The text below walks through data of US20220305401A1, “EUTECTIC EXTRACTION OF SOLIDS” (Givaudan SA, priority 2019, published 2022).

With `C[N+](C)(C)CC(=O)O` [betaine], the saturation level worked out at 633 g/L in series [1] (distilled water) and 5.4 M in series [1] (water or PBS). In addition, the “hydrotropic behavior for disperse red 13” value in series [2] is “too modestly to be qualified as such”.

Consider `CC(C)c1cc2c(c(O)c1O)[C@@]1(C(=O)O)CCCC(C)(C)[C@@H]1CC2` [CA, carnosic acid], for which the water solubility result in series [3] is “strongly reduced”.

As for `NC(N)=O` [urea, Urea], the saturation level stood at 607 g/L in series [1] (distilled water) and 10.1 M in series [1] (water or PBS). In addition, the “hydrotropic behavior for disperse red 13” value in series [2] was “displays a hydrotropic behavior”.
